Experimental data as given in PubChem BioAssay (NCI).
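Dose response: 5 concentrations. Exposure: 48 h. Format: 96-well plates. Endpoint: linear interpolation; highest concentration if not reached. The concentration for full growth arrest is given as TGI.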

Legend:
Assay in all cases: NCI tumour cell line growth inhibition, 48 h
RXF 393 renal = system: RXF 393 renal
DU-145 prostate = system: DU-145 prostate
RPMI-8226 leukemia = system: RPMI-8226 leukemia
SF-539 CNS = system: SF-539 CNS
SR leukemia = system: SR leukemia
HOP-62 NSCLC = system: HOP-62 NSCLC
OVCAR-8 ovarian = system: OVCAR-8 ovarian
TK-10 renal = system: TK-10 renal
OVCAR-3 ovarian = system: OVCAR-3 ovarian
SF-295 CNS = system: SF-295 CNS
UO-31 renal = system: UO-31 renal
UACC-62 melanoma = system: UACC-62 melanoma
M14 melanoma = system: M14 melanoma
MOLT-4 leukemia = system: MOLT-4 leukemia
SK-MEL-2 melanoma = system: SK-MEL-2 melanoma
SK-MEL-28 melanoma = system: SK-MEL-28 melanoma
IGROV1 ovarian = system: IGROV1 ovarian
ACHN renal = system: ACHN renal
CAKI-1 renal = system: CAKI-1 renal
MALME-3M melanoma = system: MALME-3M melanoma
BT-549 breast = system: BT-549 breast
SN12C renal = system: SN12C renal
NCI/ADR-RES ovarian = system: NCI/ADR-RES ovarian
MDA-N = system: MDA-N
SW-620 colon = system: SW-620 colon
HT29 colon = system: HT29 colon
HS 578T breast = system: HS 578T breast
NCI-H460 lung = system: NCI-H460 lung
T-47D breast = system: T-47D breast
HCT-15 colon = system: HCT-15 colon
SK-OV-3 ovarian = system: SK-OV-3 ovarian
NCI-H226 lung = system: NCI-H226 lung
NCI-H23 lung = system: NCI-H23 lung
SK-MEL-5 melanoma = system: SK-MEL-5 melanoma
COLO 205 colon = system: COLO 205 colon
KM12 colon = system: KM12 colon
MCF7 breast = system: MCF7 breast
OVCAR-4 ovarian = system: OVCAR-4 ovarian
SF-268 CNS = system: SF-268 CNS
786-0 renal = system: 786-0 renal
LOX IMVI melanoma = system: LOX IMVI melanoma
OVCAR-5 ovarian = system: OVCAR-5 ovarian
MDA-MB-231 breast = system: MDA-MB-231 breast
EKVX NSCLC = system: EKVX NSCLC
PC-3 prostate = system: PC-3 prostate
A549 NSCLC = system: A549 NSCLC
HCC-2998 colon = system: HCC-2998 colon
MDA-MB-435 = system: MDA-MB-435
SNB-75 CNS = system: SNB-75 CNS
HCT-116 colon = system: HCT-116 colon
HOP-92 NSCLC = system: HOP-92 NSCLC
UACC-257 melanoma = system: UACC-257 melanoma
A498 renal = system: A498 renal
SNB-19 CNS = system: SNB-19 CNS
NCI-H522 lung = system: NCI-H522 lung
CCRF-CEM leukemia = system: CCRF-CEM leukemia
K-562 leukemia = system: K-562 leukemia
U251 CNS = system: U251 CNS
HL-60(TB) leukemia = system: HL-60(TB) leukemia

O=C1Cc2c(-c3cccs3)cc(-c3ccccc3)nc2-c2ccccc2N1
TGI (RXF 393 renal): > 100 µM | TGI (DU-145 prostate): > 100 µM | TGI (RPMI-8226 leukemia): > 100 µM | TGI (SF-539 CNS): > 100 µM | TGI (SR leukemia): > 100 µM | TGI (HOP-62 NSCLC): > 100 µM | TGI (OVCAR-8 ovarian): 17.1 µM | TGI (TK-10 renal): > 100 µM | TGI (OVCAR-3 ovarian): > 100 µM | TGI (SF-295 CNS): > 100 µM | TGI (UO-31 renal): > 100 µM | TGI (UACC-62 melanoma): > 100 µM | TGI (M14 melanoma): > 100 µM | TGI (MOLT-4 leukemia): > 100 µM | TGI (SK-MEL-2 melanoma): > 100 µM | TGI (SK-MEL-28 melanoma): > 100 µM | TGI (IGROV1 ovarian): 71.5 µM | TGI (ACHN renal): > 100 µM | TGI (CAKI-1 renal): > 100 µM | TGI (MALME-3M melanoma): 45.7 µM | TGI (BT-549 breast): > 100 µM | TGI (SN12C renal): > 100 µM | TGI (NCI/ADR-RES ovarian): > 100 µM | TGI (MDA-N): > 100 µM | TGI (SW-620 colon): > 100 µM | TGI (HT29 colon): 43.9 µM | TGI (HS 578T breast): 17.2 µM | TGI (NCI-H460 lung): > 100 µM | TGI (T-47D breast): > 100 µM | TGI (HCT-15 colon): > 100 µM | TGI (SK-OV-3 ovarian): > 100 µM | TGI (NCI-H226 lung): > 100 µM | TGI (NCI-H23 lung): > 100 µM | TGI (SK-MEL-5 melanoma): > 100 µM | TGI (COLO 205 colon): > 100 µM | TGI (KM12 colon): > 100 µM | TGI (MCF7 breast): > 100 µM | TGI (OVCAR-4 ovarian): > 100 µM | TGI (SF-268 CNS): 56.8 µM | TGI (786-0 renal): > 100 µM | TGI (LOX IMVI melanoma): > 100 µM | TGI (OVCAR-5 ovarian): > 100 µM | TGI (MDA-MB-231 breast): > 100 µM | TGI (EKVX NSCLC): > 100 µM | TGI (PC-3 prostate): > 100 µM | TGI (A549 NSCLC): > 100 µM | TGI (HCC-2998 colon): > 100 µM | TGI (MDA-MB-435): > 100 µM | TGI (SNB-75 CNS): 41.9 µM | TGI (HCT-116 colon): > 100 µM | TGI (HOP-92 NSCLC): > 100 µM | TGI (UACC-257 melanoma): > 100 µM | TGI (A498 renal): > 100 µM | TGI (SNB-19 CNS): > 100 µM | TGI (NCI-H522 lung): > 100 µM | TGI (CCRF-CEM leukemia): > 100 µM | TGI (K-562 leukemia): > 100 µM

CN1CCN(c2cc3[nH]c4cc(O)cc(O)c4c(=O)c3cc2N)CC1
TGI (RXF 393 renal): 49 µM | TGI (DU-145 prostate): > 100 µM | TGI (RPMI-8226 leukemia): 49.2 µM | TGI (SF-539 CNS): 17.4 µM | TGI (SR leukemia): 21 µM | TGI (HOP-62 NSCLC): > 100 µM | TGI (OVCAR-8 ovarian): > 100 µM | TGI (TK-10 renal): 94.2 µM | TGI (OVCAR-3 ovarian): 54.9 µM | TGI (SF-295 CNS): > 100 µM | TGI (UO-31 renal): 67.3 µM | TGI (UACC-62 melanoma): 2.91 µM | TGI (M14 melanoma): > 100 µM | TGI (MOLT-4 leukemia): 4.58 µM | TGI (SK-MEL-2 melanoma): 70.7 µM | TGI (SK-MEL-28 melanoma): 83.4 µM | TGI (IGROV1 ovarian): 72.5 µM | TGI (ACHN renal): > 100 µM | TGI (CAKI-1 renal): 87 µM | TGI (MALME-3M melanoma): 67.4 µM | TGI (BT-549 breast): 95.1 µM | TGI (SN12C renal): 3.43 µM | TGI (NCI/ADR-RES ovarian): > 100 µM | TGI (MDA-N): 69 µM | TGI (SW-620 colon): 65.3 µM | TGI (HT29 colon): 63.6 µM | TGI (HS 578T breast): > 100 µM | TGI (NCI-H460 lung): > 100 µM | TGI (T-47D breast): > 100 µM | TGI (HCT-15 colon): > 100 µM | TGI (NCI-H226 lung): 5.25 µM | TGI (NCI-H23 lung): > 100 µM | TGI (SK-MEL-5 melanoma): 50.1 µM | TGI (U251 CNS): 68.5 µM | TGI (COLO 205 colon): 32 µM | TGI (KM12 colon): 71.7 µM | TGI (MCF7 breast): 45.8 µM | TGI (OVCAR-4 ovarian): 69.5 µM | TGI (SF-268 CNS): 52.5 µM | TGI (786-0 renal): > 100 µM | TGI (LOX IMVI melanoma): 41.5 µM | TGI (OVCAR-5 ovarian): > 100 µM | TGI (MDA-MB-231 breast): 3.32 µM | TGI (EKVX NSCLC): 87.9 µM | TGI (PC-3 prostate): 52.7 µM | TGI (A549 NSCLC): > 100 µM | TGI (HCC-2998 colon): 45.7 µM | TGI (MDA-MB-435): 42.4 µM | TGI (SNB-75 CNS): 45.1 µM | TGI (HL-60(TB) leukemia): > 100 µM | TGI (HCT-116 colon): > 100 µM | TGI (HOP-92 NSCLC): 44 µM | TGI (UACC-257 melanoma): > 100 µM | TGI (A498 renal): 73.2 µM | TGI (SNB-19 CNS): > 100 µM | TGI (NCI-H522 lung): 63.5 µM | TGI (CCRF-CEM leukemia): 32.9 µM | TGI (K-562 leukemia): 36.1 µM
